Data set [1] can be described thus: Therapeutic index, ratio of CC50 for HEp2 to EC50 for RSV long A. Conditions: human, HEp2 cells; read-out: Ratio CC50/EC50.
For data set [2], the system named is Respiratory syncytial virus. Put plainly: Antiviral activity against RSV long A with F1 protein K394R mutation in HEp2 cells. In kind it is functional, organism-based.
Data set [3] is described as follows: Cytotoxicity against human HEp2 cells. In kind it is cell-based, HEp-2.

Each structure is given as a SMILES string.

`CC(C)CCn1c(Cn2c(=O)n(C(C)C)c3ccccc32)nc2cc(C(N)=O)ccc21`: the selectivity ratio in data set [1] was 141. Also, in data set [2], the EC50 (in general, the concentration needed to bring the measured effect to its halfway point) turned out to be 0.166 µM. Moreover, the CC50 (usually the concentration that lowers cell viability or growth by half) in data set [3] was found to be 23.4 µM.
For `CC(C)CCn1c(Cn2c(=O)n(C(C)C)c3ccccc32)nc2cc(C(=O)N(C)C)ccc21`, the selectivity ratio in data set [1] came to 1.03. The compound further had an EC50 in data set [2] of 24.8 µM. In data set [3], this compound registered a CC50 of 25.6 µM.
Turning to `CC(C)CCn1c(Cn2c(=O)n(CC(=O)OC(C)(C)C)c3ccccc32)nc2cc(C(=N)N)ccc21`, in data set [1], the selectivity ratio amounted to 878. Also, a half-maximal response in data set [2] (EC50) required 0.009 µM. Also, it took 7.9 µM to reach half-maximal cytotoxicity in data set [3] (CC50).
The like results for `CC(C)CCn1c(Cn2c(=O)n(C(C)C)c3ccccc32)nc2cc(N)ccc21` were, in that order, 258, 0.125 µM and 32.2 µM.
The like results for `CCc1ccc2c(c1)nc(Cn1c(=O)n(C(C)C)c3ccccc31)n2CCC(C)C` were, in that order, 26.8, 0.692 µM and 18.5 µM.
The like results for `CC(C)CCn1c(Cn2c(=O)n(C(C)C)c3ccccc32)nc2cc(-c3ncon3)ccc21` were, in that order, 10.3, 21.6 µM and 223 µM.
Turning to `CC(C)CCn1c(Cn2c(=O)n(C(C)C)c3ccccc32)nc2cc(CN)ccc21`, in data set [1], the selectivity ratio came to 1960. Further, the EC50 in data set [2] was found to be 0.002 µM. The compound further registered a CC50 in data set [3] of 3.92 µM.
Turning to `CNCc1ccc2c(c1)nc(Cn1c(=O)n(C(C)C)c3ccccc31)n2CCC(C)C`, the selectivity ratio in data set [1] was found to be 26. The compound further came in with an EC50 in data set [2] of 0.057 µM. In data set [3], half-maximal cytotoxicity (CC50) was put at 1.48 µM.
For `CC(C)CCn1c(Cn2c(=O)n(C(C)C)c3ccccc32)nc2cc(CNC3CC3)ccc21` the same measures were 47.3, 0.363 µM and 17.2 µM.
Take `C=C(C)n1c(=O)n(Cc2nc3cc(C(=O)O)ccc3n2CCC(C)C)c2ccccc21`: the selectivity ratio in data set [1] was 0.11. This compound showed an EC50 in data set [2] of 264 µM. The same compound registered a CC50 in data set [3] of 30 µM.
`CC(C)CCn1c(Cn2c(=O)n(C(C)C)c3ccccc32)nc2cc(C(=O)O)ccc21`: in data set [1], the selectivity ratio worked out at 0.07. Also, in data set [2], the EC50 is 238 µM. Moreover, half-maximal cytotoxicity in data set [3] (CC50) was put at 17.3 µM.
With `CC(C)CCn1c(Cn2c(=O)n(C(C)C)c3ccccc32)nc2cc(-c3nn[nH]n3)ccc21`, the selectivity ratio in data set [1] worked out at 0.009. The same compound had an EC50 in data set [2] of 225 µM. In data set [3], it took 2 µM to reach half-maximal cytotoxicity (CC50).
For `CC(=O)NCc1ccc2c(c1)nc(Cn1c(=O)n(C(C)C)c3ccccc31)n2CCC(C)C` the same measures were 282, 0.631 µM and 178 µM.
The like results for `CC(C)CCn1c(Cn2c(=O)n(C(C)C)c3ccccc32)nc2cc(CNS(C)(=O)=O)ccc21` were, in that order, 42.4, 0.725 µM and 30.8 µM.
For `CC(C)CCn1c(Cn2c(=O)n(C(C)C)c3ccccc32)nc2cc(C(C)(C)N)ccc21` the same measures were 4.71, 0.694 µM and 3.27 µM.
With `CC(C)CCn1c(Cn2c(=O)n(C(C)C)c3ccccc32)nc2cc(CCN)ccc21`, the selectivity ratio in data set [1] came to 2.54. This compound returned an EC50 in data set [2] of 4.33 µM. The CC50 in data set [3] turned out to be 11 µM.
For `CC(C)CCn1c(Cn2c(=O)n(C(C)C)c3ccccc32)nc2cc(CN(C)C)ccc21` the same measures were 0.031, 183 µM and 5.65 µM.
`C=C(C)n1c(=O)n(Cc2nc3cc(C(=N)N)ccc3n2CCC(C)C)c2ccccc21`: in data set [1], the selectivity ratio was 2700. The same compound returned an EC50 in data set [2] of 0.004 µM. This compound also displayed a CC50 in data set [3] of 10.8 µM.
On to `CC(C)CCn1c(Cn2c(=O)n(C)c3ccccc32)nc2cc(-c3nnn(C)n3)ccc21`, for which the selectivity ratio in data set [1] turned out to be 0.012. For the same compound, the midpoint of the response in data set [2], the EC50, lay at 239 µM. In data set [3], this compound yielded a CC50 of 2.97 µM.
For the compound `COC(=O)c1ccc2c(c1)nc(Cn1c(=O)n(C(C)C)c3ccccc31)n2CCC(C)C`, the selectivity ratio in data set [1] is 0.15. Further, the EC50 in data set [2] was determined as 230 µM. This compound showed a 50% cytotoxic concentration (CC50) in data set [3] of 33.7 µM.

Source of the values: ChEMBL document CHEMBL1140659, “Respiratory syncytial virus fusion inhibitors. Part 5: Optimization of benzimidazole substitution patterns towards derivatives with improved activity” (Bioorg Med Chem Lett, 2007).
